Data published in patent publication US20070167631A1, “Novel herbicides” (priority 2003, published 2007).

Legend:
Format in all cases: in vivo
Amaranthus [1] = assay: Post-emergence herbicidal action (Example B2); details: 250 g/ha, after about 18 days, rating scale 10=total damage, 0=no action
Source text: (§1) Monocotyledonous and dicotyledonous test plants are cultivated in a greenhouse in standard soil in plastic pots and, at the 4- to 6-leaf stage, are sprayed with an aqueous suspension of the test compounds of formula I prepared from a 25% wettable powder (Example F3, b) according to WO 97/34485) or with an emulsion of the test compounds of formula I prepared from a 25% emulsifiable concentrate (Example F1, c) according to WO 97/34485), corresponding to concentrations of 125 and 250 g of active ingredient per hectare (500 litres of water per ha). The test plants are then grown on in the greenhouse under optimum conditions. After a test duration of about 18 days, the test is evaluated in accordance with a scale of eleven ratings (10=total damage, 0=no action). Ratings of from 10 to 7 (especially from 10 to 8) indicate very good to good herbicidal action.

Panicum = assay: Post-emergence herbicidal action (Example B2); details: 250 g/ha, after about 18 days, rating scale 10=total damage, 0=no action
Source text: as §1

Euphorbia = assay: Post-emergence herbicidal action (Example B2); details: 250 g/ha, after about 18 days, rating scale 10=total damage, 0=no action
Source text: as §1

Chenopodium = assay: Post-emergence herbicidal action (Example B2); details: 250 g/ha, after about 18 days, rating scale 10=total damage, 0=no action
Source text: as §1

Stellaria [2] = assay: Post-emergence herbicidal action (Example B2); details: 250 g/ha, after about 18 days, rating scale 10=total damage, 0=no action
Source text: as §1

Xanthium = assay: Post-emergence herbicidal action (Example B2); details: 250 g/ha, after about 18 days, rating scale 10=total damage, 0=no action
Source text: as §1

Echinochloa = assay: Post-emergence herbicidal action (Example B2); details: 250 g/ha, after about 18 days, rating scale 10=total damage, 0=no action
Source text: as §1

Amaranthus [3] = assay: Microscreen, post-emergence herbicidal action (Example B3); details: 250 g/ha, evaluated after 9 or 13 days, scale of eleven ratings (10=total damage, 0=no action)
Experimental: (§2) Example B3 Microscreen, Post-Emergence Herbicidal Action Monocotyledonous and dicotyledonous test plants are sown in sterilised standard soil in seed trays each having 96 cells. […] The plants are grown on in the climatic chamber until the test is evaluated after 9 or 13 days. The test is evaluated in accordance with a scale of eleven ratings (10=total damage, 0=no action). Ratings of from 10 to 7 (especially from 10 to 8) indicate very good to good herbicidal action.

Solanum = assay: as above; details: 250 g/ha, evaluated after 9 or 13 days, scale of eleven ratings (10=total damage, 0=no action)
Experimental: as §2

Nasturtium = assay: as above; details: 250 g/ha, evaluated after 9 or 13 days, scale of eleven ratings (10=total damage, 0=no action)
Experimental: as §2

Stellaria [4] = assay: as above; details: 250 g/ha, evaluated after 9 or 13 days, scale of eleven ratings (10=total damage, 0=no action)
Experimental: (§3) Example B3 Microscreen, Post-Emergence Herbicidal Action Monocotyledonous and dicotyledonous test plants are sown in sterilised standard soil in seed trays each having 96 cells. After 8 to 9 days' cultivation under controlled conditions in a climatic chamber (cultivation at 17/23° C.; 13 hours' light; 50-60% humidity; after application at 19/24° C.), the plants are treated with an aqueous spray solution of 1000 mg/l of the active ingredient used ([…]; incl. 10% DMSO as solvent). The plants are grown on in the climatic chamber until the test is evaluated after 9 or 13 days. The test is evaluated in accordance with a scale of eleven ratings (10=total damage, 0=no action). Ratings of from 10 to 7 (especially from 10 to 8) indicate very good to good herbicidal action.

Digitaria = assay: as above; details: 250 g/ha, evaluated after 9 or 13 days, scale of eleven ratings (10=total damage, 0=no action)
Experimental: as §3

SMILES | Post-emergence action: Amaranthus (Amaranthus [1]) | Post-emergence action: Panicum (Panicum) | Post-emergence action: Euphorbia (Euphorbia) | Post-emergence action: Chenopodium (Chenopodium) | Post-emergence action: Stellaria (Stellaria [2]) | Post-emergence action: Xanthium (Xanthium) | Post-emergence action: Echinochloa (Echinochloa) | Amaranthus, herbicidal action rating (Amaranthus [3]) | Solanum, herbicidal action rating (Solanum) | Nasturtium, herbicidal action rating (Nasturtium) | Stellaria, herbicidal action rating (Stellaria [4]) | Digitaria, herbicidal action rating (Digitaria)
COCCOc1nc(C(=O)C2=C(O)CCCC2=O)ccc1C(F)(F)F [Compound 1.003] | 9 | 8 | 6 | 10 | 10 | 9 | 8 | – | – | – | – | –
O=C1CCCC(O)=C1C(=O)c1ccc(C(F)(F)F)c(OC2CCOC2)n1 (stereo not shown) [Compound 1.021] | 9 | 6 | 7 | 8 | 7 | 9 | 6 | – | – | – | – | –
CN(C)c1nc(C(=O)C2=C(O)CCCC2=O)ccc1C(F)(F)F [Compound 1.059] | – | – | – | – | – | – | – | 7 | 9 | 9 | 9 | 7
CCN(CC)c1nc(C(=O)C2=C(O)CCCC2=O)ccc1C(F)(F)F [Compound 1.060] | – | – | – | – | – | – | – | 8 | 8 | 9 | 7 | 4
O=C1CCCC(O)=C1C(=O)c1ccc(C(F)(F)F)c(-n2cccn2)n1 [Compound 1.080] | – | – | – | – | – | – | – | 7 | 9 | 10 | 9 | 5
O=C1CCCC(O)=C1C(=O)c1ccc(C(F)(F)F)c(-n2ccc(C(F)(F)F)n2)n1 [Compound 1.081] | 10 | 10 | 9 | 9 | 6 | 9 | 9 | – | – | – | – | –
O=C1CCCC(O)=C1C(=O)c1ccc(C(F)(F)F)c(-n2cncn2)n1 [Compound 1.082] | – | – | – | – | – | – | – | 6 | 9 | 10 | 10 | 3
CCC(=O)N(C)c1nc(C(=O)C2=C(O)CCCC2=O)ccc1C(F)(F)F [Compound 1.090] | 8 | 8 | – | 9 | 6 | 8 | 7 | – | – | – | – | –
CN(C(=O)c1ccccc1)c1nc(C(=O)C2=C(O)CCCC2=O)ccc1C(F)(F)F [Compound 1.091] | – | – | – | – | – | – | – | 8 | 9 | 9 | 6 | 2
O=C1CCCC(O)=C1C(=O)c1ccc(OCC(F)(F)F)c(N2CCOCC2)n1 [Compound 1.094] | – | – | – | – | – | – | – | 9 | 10 | 8 | 7 | 8
C=C(OCC)c1nc(C(=O)C2=C(O)CCCC2=O)ccc1C(F)(F)F [Compound 1.189] | – | – | – | – | – | – | – | – | 9 | 9 | 8 | 7
CC1=NOC(c2nc(C(=O)C3=C(O)CCCC3=O)ccc2C(F)(F)F)C1 (stereo not shown) [Compound 1.203] | 8 | 9 | 7 | 9 | 7 | 8 | 8 | – | – | – | – | –
COCCOc1nc(C(=O)C2=C(O)C(C)(C)C(=O)C(C)(C)C2=O)ccc1C(F)(F)F [Compound 2.003] | 8 | 9 | 9 | 8 | 9 | 8 | 9 | – | – | – | – | –
CC1(C)C(=O)C(C(=O)c2ccc(C(F)(F)F)c(-n3ccc(C(F)(F)F)n3)n2)=C(O)C(C)(C)C1=O [Compound 2.080] | 9 | 9 | 9 | 6 | 7 | 9 | 9 | – | – | – | – | –
COc1nc(C(=O)C2=C(O)C(C)(C)C(=O)C(C)(C)C2=O)ccc1C(F)(F)F [Compound 2.094] | 3 | 8 | 8 | 9 | 9 | 7 | 8 | – | – | – | – | –
CCOc1nc(C(=O)C2=C(O)C(C)(C)C(=O)C(C)(C)C2=O)ccc1C(F)(F)F [Compound 2.095] | 9 | 9 | 9 | 8 | 5 | 9 | 9 | – | – | – | – | –
C=C(OCC)c1nc(C(=O)C2=C(O)C(C)(C)C(=O)C(C)(C)C2=O)ccc1C(F)(F)F [Compound 2.188] | 5 | 9 | 7 | 6 | 10 | 8 | 7 | – | – | – | – | –
CC1=NOC(c2nc(C(=O)C3=C(O)C(C)(C)C(=O)C(C)(C)C3=O)ccc2C(F)(F)F)C1 (stereo not shown) [Compound 2.201] | 9 | 9 | 6 | 8 | 6 | 8 | 8 | – | – | – | – | –
CC1(C)C(=O)C(C(=O)c2ccc(C(F)(F)F)c(C#N)n2)=C(O)C(C)(C)C1=O [Compound 2.208] | 8 | 9 | 8 | 6 | 5 | 8 | 9 | – | – | – | – | –
O=C1CCC2(CC2)C(O)=C1C(=O)c1ccc(C(F)(F)F)c(N2CCOCC2)n1 [Compound 3.068] | 10 | 10 | 9 | 9 | 9 | 9 | 9 | – | – | – | – | –
CC1(C)CC(C)(C)C(O)=C(C(=O)c2ccc(C(F)(F)F)c(N3CCOCC3)n2)C1=O [Compound 3.075] | 2 | 5 | 7 | 9 | 8 | 8 | 7 | – | – | – | – | –
CC1(C)OC(C)(C)C(O)=C(C(=O)c2ccc(C(F)(F)F)c(N3CCOCC3)n2)C1=O [Compound 3.076] | 7 | 7 | 6 | 9 | 7 | 8 | 7 | – | – | – | – | –
N#CC1CC(=O)C(C(=O)c2ccc(C(F)(F)F)c(N3CCOCC3)n2)=C(O)C1 (stereo not shown) [Compound 3.212] | 8 | 0 | 7 | 7 | 7 | 8 | 5 | – | – | – | – | –
